Consider 46 molecules from patent US12503453B2, “USP7 inhibition” (Dana-Farber Cancer Institute, Inc., priority 2018, dated 2025).

Where two headings read alike, the source gives them in different places.

In this test the target is full length USP7 (Homo sapiens (Human), UniProt Q93009). The test can be described thus: Ub-AMC enzymatic assay with full-length USP7. Type of test: biochemical. Particulars: 6 hours pre-incubation, Ub-AMC. The protocol: Both constructs were overexpressed in E. coli BL21 (DE3). Cells were grown at 37° C. to an OD of 0.9, cooled to 16° C., induced with 500 μM isopropyl-1-thio-D-galactopyranoside (IPTG), incubated overnight at 16° C., collected by centrifugation, and stored at −80° C. Cell pellets were sonicated in lysis buffer (25 mM Tris pH 8, 1 M NaCl, and 10 mM BME) supplemented with 10 μg/ml phenylmethanesulfonylfluoride (PMSF) and the resulting lysate was centrifuged at 30,000×g for 40 min. Ni-NTA beads (Qiagen) were mixed with lysate supernatant for 2 hours, and washed with lysis buffer supplemented with 25 mM imidazole. The bound protein was eluted with lysis buffer supplemented with 300 mM imidazole. The sample was then concentrated to 1 ml (30 kDa concentrator; Amicon Ultra, Millipore), and run on a Superdex 200 (GE healthcare) in buffer containing 25 mM HEPES pH 7.5, 200 mM NaCl, and 1 mM DTT. Fractions were pooled, concentrated and frozen at −80° C.
Full length USP7 was tested for its activity in Ubiquitin-AMC assay in presence or absence of inhibitors. USP7 (5 nM) was pre-incubated for 6 hours at room temperature with different concentrations of inhibitors or DMSO as a control in 50 mM HEPES pH 7.5, 0.5 mM EDTA, 11 μM ovalbumin, and 5 mM DTT. Ubiquitin-AMC (Boston Biochem) was then added to a final concentration of 500 nM. The initial rate of the reaction was measured by collecting fluorescence data at one minute intervals over 30-minute period using a Clariostar fluorescence plate reader at excitation and emission wavelength of 345 and 445 nm respectively. The calculated initial rate values were plotted against inhibitor concentrations to determine IC50s. All the experimental data were plotted using Prism GraphPad. All assays for each compound were performed at least twice for each compound.

Where [1] appears, read: Table 1, read-out: IC50 (nM), USP7 activity in USP7 assay.
[2] abbreviates: Table 3, read-out: IC50 (μM), USP7 activity in USP7 assay.
Setting [3] is: Table 2, read-out: IC50 (μM), USP7 activity in USP7 assay.

Chain of full length USP7 (Q93009 whole entry): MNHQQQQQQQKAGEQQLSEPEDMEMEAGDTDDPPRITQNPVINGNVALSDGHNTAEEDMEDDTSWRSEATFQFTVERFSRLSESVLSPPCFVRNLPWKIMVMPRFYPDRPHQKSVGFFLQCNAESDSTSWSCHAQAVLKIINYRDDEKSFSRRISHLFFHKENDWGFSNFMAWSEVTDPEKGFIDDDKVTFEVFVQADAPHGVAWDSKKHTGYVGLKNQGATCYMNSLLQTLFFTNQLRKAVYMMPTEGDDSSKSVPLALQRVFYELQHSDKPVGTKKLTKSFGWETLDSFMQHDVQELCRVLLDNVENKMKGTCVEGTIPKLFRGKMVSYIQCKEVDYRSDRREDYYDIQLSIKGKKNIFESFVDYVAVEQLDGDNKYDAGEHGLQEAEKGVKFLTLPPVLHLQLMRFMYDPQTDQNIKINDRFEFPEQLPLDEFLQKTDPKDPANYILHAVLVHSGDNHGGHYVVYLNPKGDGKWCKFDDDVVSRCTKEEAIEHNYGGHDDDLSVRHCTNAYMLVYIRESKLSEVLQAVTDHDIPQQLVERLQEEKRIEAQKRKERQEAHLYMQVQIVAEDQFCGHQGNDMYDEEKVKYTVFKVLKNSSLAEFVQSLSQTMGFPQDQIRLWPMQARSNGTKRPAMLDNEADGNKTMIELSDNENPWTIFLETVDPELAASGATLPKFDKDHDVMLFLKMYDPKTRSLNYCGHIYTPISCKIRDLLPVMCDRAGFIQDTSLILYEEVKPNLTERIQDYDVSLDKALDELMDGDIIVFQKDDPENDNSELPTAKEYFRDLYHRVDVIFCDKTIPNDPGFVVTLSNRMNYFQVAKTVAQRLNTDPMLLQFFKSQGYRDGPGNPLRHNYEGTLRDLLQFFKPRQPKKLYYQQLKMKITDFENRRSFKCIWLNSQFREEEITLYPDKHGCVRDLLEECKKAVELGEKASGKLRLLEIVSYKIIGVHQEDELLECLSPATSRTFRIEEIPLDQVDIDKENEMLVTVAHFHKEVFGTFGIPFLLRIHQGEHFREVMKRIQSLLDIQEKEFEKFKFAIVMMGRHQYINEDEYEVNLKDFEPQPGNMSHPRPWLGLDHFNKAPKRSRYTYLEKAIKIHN

With `CN1CCN(CCC(=O)Nc2ccc3c(=O)n(CC4(O)CCN(C(=O)C(CCCNC(=O)c5ccc6c(Cl)c7c(nc6c5)CCCCC7)Cc5ccccc5)CC4)cnc3c2)CC1` (stereo not shown), under setting [1], the IC50 is less than 20 nM.

In the case of `O=C(CCN1CCOCC1)Nc1ccc2c(=O)n(CC3(O)CCN(C(=O)C(CCCNC(=O)c4ccc5c(Cl)c6c(nc5c4)CCCC6)Cc4ccc(F)cc4F)CC3)cnc2c1` (stereo not shown), the IC50 under setting [2] was in the range of 20 to 100 nM.

Turning to `C=CC(=O)Nc1ccccc1-c1cn([C@@H](Cc2ccccc2)C(=O)N2CCC(O)(Cn3cnc4cc(NC(=O)CCN5CCOCC5)ccc4c3=O)CC2)nn1`, the IC50 under setting [2] was more than 1000 nM.

In the case of `CN1CCN(CCC(=O)Nc2ccc3c(=O)n(CC4(O)CCN(C(=O)C(CCCNC(=O)c5ccc6c(Cl)c7c(nc6c5)CCC7)Cc5ccccc5)CC4)cnc3c2)CC1` (stereo not shown), the IC50 under setting [1] is less than 20 nM.

Take `O=C(CCN1CCOCC1)Nc1ccc2c(=O)n(CC3(O)CCN(C(=O)C(CCCNC(=O)c4ccc5c(Cl)c6c(nc5c4)CCCC6)Cc4ccc(F)c(C(F)(F)F)c4)CC3)cnc2c1` (stereo not shown): the IC50 under setting [2] fell in the range of 20 to 100 nM.

Take `O=C(CCN1CCN(C(=O)c2ccc3c(Cl)c4c(nc3c2)CCCC4)CC1)N1CCC(O)(Cn2cnc3cc(Cl)ccc3c2=O)CC1`: the IC50 under setting [3] lay in the range of 100 to 1000 nM.

For `O=C(CCN1CCOCC1)Nc1ccc2c(=O)n(CC3(O)CCN(C(=O)[C@H](Cc4c[nH]cn4)NC(=O)CNC(=O)c4ccc5c(Cl)c6c(nc5c4)CCCC6)CC3)cnc2c1`, the IC50 under setting [1] is less than 20 nM.

In the case of `CN1CCN(CCC(=O)Nc2ccc3c(=O)n(CC4(O)CCN(C(=O)C(CCCNC(=O)c5ccc6c(Cl)c7c(nc6c5)CCCC7)Cc5ccccc5)CC4)cnc3c2)CC1` (stereo not shown), under setting [1], the half-inhibitory concentration (IC50) was less than 20 nM.

Consider `O=C(CCN1CCOCC1)Nc1ccc2c(=O)n(CC3(O)CCN(C(=O)[C@H](Cc4ccccc4)n4ccnn4)CC3)cnc2c1`, for which the IC50 under setting [2] was more than 1000 nM.

Take `O=C(NCCCC(Cc1ccccc1)C(=O)N1CCC(O)(Cn2cnc3cc(OCCN4CCOCC4)ccc3c2=O)CC1)c1ccc2c(Cl)c3c(nc2c1)CCCC3` (stereo not shown): the IC50 under setting [2] was 20 to 100 nM.

On to `CN1CCN(CCC(=O)Nc2ccc3c(=O)n(CC4(O)CCN(C(=O)C(CCCNC(=O)c5ccc6c(Cl)c7c(nc6c5)CCCC7)c5ccccc5)CC4)cnc3c2)CC1` (stereo not shown), for which, under setting [2], the IC50 is more than 1000 nM.

Consider `O=C(NCCC[C@@H](Cc1ccccc1)C(=O)N1CCC(O)(Cn2cnc3cc(N4CCOCC4)ccc3c2=O)CC1)c1ccc2c(Cl)c3c(nc2c1)CCCC3`, for which, under setting [1], the IC50 fell in the range of 100 to 1000 nM.

For `O=C(NCCC[C@@H](Cc1ccccc1)C(=O)N1CCC(O)(Cn2cnc3c(N4CCOCC4)cccc3c2=O)CC1)c1ccc2c(Cl)c3c(nc2c1)CCCC3`, the 50% inhibitory concentration (IC50) under setting [2] was in the range of 20 to 100 nM.

Regarding `O=C(CCN1CCOCC1)Nc1ccc2c(=O)n(CC3(O)CCN(C(=O)C(CCCNC(=O)c4ccc5c(O)ccnc5c4)Cc4ccccc4)CC3)cnc2c1` (stereo not shown), the IC50 under setting [2] is more than 1000 nM.

As to `CN1CCN(CCC(=O)Nc2ccc3c(=O)n(CC4(O)CCN(C(=O)CNC(=O)c5ccc6c(Cl)c7c(nc6c5)CCCC7)CC4)cnc3c2)CC1`, the IC50 under setting [1] is more than 1000 nM.

On to `O=C(CCN1CCOCC1)Nc1ccc2c(=O)n(CC3(O)CCN(C(=O)[C@H](Cc4ccccc4)NC(=O)COc4cccc5c(Cl)c6c(nc45)CCCC6)CC3)cnc2c1`, for which the IC50 under setting [2] lay in the range of 20 to 100 nM.

Take `COc1cccc(CC(CCCNC(=O)c2ccc3c(Cl)c4c(nc3c2)CCCC4)C(=O)N2CCC(O)(Cn3cnc4cc(NC(=O)CCN5CCN(C)CC5)ccc4c3=O)CC2)c1` (stereo not shown): the IC50 under setting [2] is more than 1000 nM.

On to `CN1CCN(CCC(=O)Nc2ccc3c(=O)n(CC4(O)CCN(C(=O)[C@H](Cc5ccccc5)NC(=O)CCNC(=O)c5ccc6c(Cl)c7c(nc6c5)CCCC7)CC4)cnc3c2)CC1`, for which the IC50 under setting [1] is less than 20 nM.

Turning to `CN1CCN(CCC(=O)Nc2ccc3c(=O)n(CC4(O)CCN(C(=O)C(CCCNC(=O)c5ccc6c(c5)CCCN6C(=O)CCl)Cc5ccccc5)CC4)cnc3c2)CC1` (stereo not shown), the IC50 under setting [1] was 20 to 100 nM.

`Cc1cc(Cl)c2ccc(C(=O)NCCCC(Cc3ccccc3)C(=O)N3CCC(O)(Cn4cnc5cc(NC(=O)CCN6CCOCC6)ccc5c4=O)CC3)cc2n1` (stereo not shown): the IC50 under setting [2] is more than 1000 nM.

On to `O=C(CCN1CCOCC1)Nc1ccc2c(=O)n(CC3(O)CCN(C(=O)[C@H](Cc4cscn4)NC(=O)CNC(=O)c4ccc5c(Cl)c6c(nc5c4)CCCC6)CC3)cnc2c1`, for which the IC50 under setting [1] was less than 20 nM.

As for `CC(C)NC(=O)/C=C/c1ccc(C(=O)NCCC[C@@H](Cc2ccccc2)C(=O)N2CCC(O)(Cn3cnc4cc(NC(=O)CCN5CCOCC5)ccc4c3=O)CC2)cn1`, under setting [1], the IC50 was more than 1000 nM.

Regarding `CN1CCN(CCC(=O)Nc2ccc3c(=O)n(CC4(O)CCN(C(=O)CCNC(=O)c5ccc6c(Cl)c7c(nc6c5)CCCC7)CC4)cnc3c2)CC1`, under setting [1], the IC50 lay within 100 to 1000 nM.

As for `CN1CCN(c2cccc3c(=O)n(CC4(O)CCN(C(=O)[C@@H](CCCNC(=O)c5ccc6c(Cl)c7c(nc6c5)CCCC7)Cc5ccccc5)CC4)cnc23)CC1`, the IC50 under setting [2] was in the range of 20 to 100 nM.

Turning to `CN1CCN(CCC(=O)Nc2ccc3c(=O)n(CC4(O)CCN(C(=O)CCCNC(=O)c5ccc6c(Cl)c7c(nc6c5)CCCC7)CC4)cnc3c2)CC1`, under setting [1], the IC50 lay within 20 to 100 nM.

As to `O=C(CCN1CCOCC1)Nc1ccc2c(=O)n(CC3(O)CCN(C(=O)CCCCNC(=O)c4ccc5c(Cl)c6c(nc5c4)CCCC6)CC3)cnc2c1`, the IC50 under setting [1] fell in the range of 100 to 1000 nM.

With `CN1CCN(CCC(=O)Nc2ccc3c(=O)n(CC4(O)CCN(C(=O)C(CCCNC(=O)c5cnccc5Cl)Cc5ccccc5)CC4)cnc3c2)CC1` (stereo not shown), under setting [1], the IC50 is more than 1000 nM.

`O=C(CCN1CCOCC1)Nc1ccc2c(=O)n(CC3(O)CCN(C(=O)C(CCCNC(=O)c4ccc5c(Cl)cc(C(F)(F)F)nc5c4)Cc4ccccc4)CC3)cnc2c1` (stereo not shown): the IC50 under setting [2] was in the range of 100 to 1000 nM.

For the molecule `CN1CCN(CCC(=O)Nc2ccc3c(=O)n(CC4(O)CCN(C(=O)C(CCCNC(=O)c5ccc6cc7c(nc6c5)CCCC7)Cc5ccccc5)CC4)cnc3c2)CC1` (stereo not shown) [drawing 180], the IC50 under setting [3] lay in the range of 100 to 1000 nM.

As for `CN1CCN(CCC(=O)Nc2ccc3c(=O)n(CC4(O)CCN(C(=O)C(CCCNC(=O)c5ccc6c(Cl)cc(-c7ccccc7)nc6c5)Cc5ccccc5)CC4)cnc3c2)CC1` (stereo not shown), under setting [2], the IC50 is 100 to 1000 nM.

Take `CN1CCN(CCC(=O)Nc2ccc3c(=O)n(CC4(O)CCN(C(=O)C(CCCNC(=O)c5ccc(/C=C6\CCCCC6=O)cc5)Cc5ccccc5)CC4)cnc3c2)CC1` (stereo not shown): under setting [3], the IC50 is 20 to 100 nM.

Take `CN1CCN(CCC(=O)Nc2ccc3c(=O)n(CC4(O)CCN(C(=O)C(CCCNC(=O)c5ccc6c(Cl)cc(-c7ccc(F)cc7)nc6c5)Cc5ccccc5)CC4)cnc3c2)CC1` (stereo not shown): the IC50 under setting [2] was in the range of 20 to 100 nM.

Regarding `CN(C)CCC(=O)Nc1ccc2c(=O)n(CC3(O)CCN(C(=O)CCCCNC(=O)c4ccc5c(Cl)c6c(nc5c4)CCCC6)CC3)cnc2c1`, the IC50 under setting [1] was in the range of 20 to 100 nM.

For `CN1CCN(CCC(=O)Nc2ccc3c(=O)n(CC4(O)CCN(C(=O)C(CCCNC(=O)c5ccc6c(Cl)cc(-c7cscn7)nc6c5)Cc5ccccc5)CC4)cnc3c2)CC1` (stereo not shown), under setting [2], the IC50 lay in the range of 20 to 100 nM.

On to `O=C(CCN1CCOCC1)Nc1ccc2c(=O)n(CC3(O)CCN(C(=O)[C@@H](CCCNC(=O)c4ccc(/C=C/C(=O)N5CCCCC5)nc4)Cc4ccccc4)CC3)cnc2c1`, for which the IC50 under setting [1] is more than 1000 nM.

On to `CN(C)C(=O)/C=C/c1ccc(C(=O)NCCC[C@@H](Cc2ccccc2)C(=O)N2CCC(O)(Cn3cnc4cc(NC(=O)CCN5CCOCC5)ccc4c3=O)CC2)cn1`, for which, under setting [1], the IC50 was more than 1000 nM.

With `CN1CCN(CCC(=O)Nc2ccc3c(=O)n(CC4(O)CCN(C(=O)[C@H](CCCNC(=O)c5ccc6c(Cl)c7c(nc6c5)CCCC7)Cc5ccccc5)CC4)cnc3c2)CC1` [drawing 147], the IC50 under setting [1] was 100 to 1000 nM.

Consider `CN1CCN(CCC(=O)Nc2ccc3c(=O)n(CC4(O)CCN(C(=O)[C@H](Cc5ccccc5)NC(=O)CNC(=O)c5ccc6c(Cl)c7c(nc6c5)CCCC7)CC4)cnc3c2)CC1`, for which the IC50 under setting [1] is less than 20 nM.

On to `CN1CCN(CCC(=O)Nc2ccc3c(=O)n(CC4(O)CCN(C(=O)C(CCNC(=O)c5ccc6c(Cl)c7c(nc6c5)CCCC7)Cc5ccccc5)CC4)cnc3c2)CC1` (stereo not shown), for which, under setting [1], the IC50 is less than 20 nM.

Turning to `CN1CCN(CCC(=O)Nc2ccc3c(=O)n(CC4(O)CCN(C(=O)[C@@H](CCCNC(=O)c5ccc6c(Cl)c7c(nc6c5)CCCC7)Cc5ccccc5)CC4)cnc3c2)CC1` [drawing 146], under setting [1], the IC50 was less than 20 nM.

As for `C=CS(=O)(=O)N1CCCc2cc(C(=O)NCCCC(Cc3ccccc3)C(=O)N3CCC(O)(Cn4cnc5cc(NC(=O)CCN6CCN(C)CC6)ccc5c4=O)CC3)ccc21` (stereo not shown), the IC50 under setting [1] fell in the range of 20 to 100 nM.

`C=CS(=O)(=O)NCCCC(Cc1ccccc1)C(=O)N1CCC(O)(Cn2cnc3cc(NC(=O)CCN4CCN(C)CC4)ccc3c2=O)CC1` (stereo not shown): the IC50 under setting [3] is 20 to 100 nM.

For the molecule `O=C(CCN1CCOCC1)Nc1ccc2c(=O)n(CC3(O)CCN(C(=O)[C@H](Cc4ccccc4)NC(=O)COc4ccc5c(Cl)c6c(nc5c4)CCCC6)CC3)cnc2c1`, the IC50 under setting [2] was in the range of 100 to 1000 nM.

For `CN1CCN(CCC(=O)Nc2ccc3c(=O)n(CC4(O)CCN(C(=O)C(CCCNC(=O)C5(C#N)CC5)Cc5ccccc5)CC4)cnc3c2)CC1` (stereo not shown), the IC50 under setting [1] was in the range of 100 to 1000 nM.

On to `C=CC(=O)NCCCC(Cc1ccccc1)C(=O)N1CCC(O)(Cn2cnc3cc(NC(=O)CCN4CCN(C)CC4)ccc3c2=O)CC1` (stereo not shown), for which the IC50 under setting [3] is less than 20 nM.

For `CN1CCN(CCC(=O)Nc2ccc3c(=O)n(CC4(O)CCN(C(=O)CCCCCNC(=O)c5ccc6nc7c(c(Cl)c6c5)CCCC7)CC4)cnc3c2)CC1`, the IC50 under setting [1] lay within 20 to 100 nM.

Usually IC50 stands for the concentration that gives 50% inhibition.
